From patent US8846951B2 (AbbVie Inc., priority 2009, dated 2014)
pEC50, pKi: −log10 of the molar value.

Key:
5HT2B receptors = target: T1, 5HT2B receptors (Homo sapiens, UniProt P41595); assay: Human 5-HT2B functional high throughput screening assay in CHO-K1 cells (calcium flux); type: cell-based
T1 construct: expressed in transfected cells; host or cells: CHO-K1 cells
Method in brief: (§1)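 Agonism is measured as intracellular calcium increase in receptor-overexpressing CHO-K1 cells, read by FLIPR at 25 °C. Responses are expressed relative to serotonin, with EC50 and Emax derived from a 4-parameter logistic curve over 6 concentrations starting at 10 μM.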

5HT2C receptors [1] = target: T2, 5HT2C receptors (Homo sapiens, UniProt P28335); assay: Human 5-HT2C functional high throughput screening assay in CHO-K1 cells (calcium flux); type: cell-based; design: expressed in transfected cells; host or cells: CHO-K1 cells
T2 sequence (P28335 33-458): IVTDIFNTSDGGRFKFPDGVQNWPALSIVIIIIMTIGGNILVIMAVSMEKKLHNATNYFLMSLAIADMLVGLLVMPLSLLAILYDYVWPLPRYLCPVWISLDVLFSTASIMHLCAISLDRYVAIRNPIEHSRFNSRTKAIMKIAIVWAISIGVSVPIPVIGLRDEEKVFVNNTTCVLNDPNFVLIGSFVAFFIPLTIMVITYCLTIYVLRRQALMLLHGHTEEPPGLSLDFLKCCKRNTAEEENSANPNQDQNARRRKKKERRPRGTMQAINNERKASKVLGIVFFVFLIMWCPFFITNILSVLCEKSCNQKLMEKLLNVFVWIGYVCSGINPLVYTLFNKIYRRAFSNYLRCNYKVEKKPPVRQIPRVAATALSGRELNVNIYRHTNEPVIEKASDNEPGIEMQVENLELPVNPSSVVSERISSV
Method in brief: as §1

5HT2C receptors [2] = target: T2, 5HT2C receptors; assay: Human 5-HT2C functional assay in 1321N1 cells (intracellular calcium, FLIPR); type: cell-based; design: expressed in transfected cells; host or cells: 1321N1 cells; conditions: 5-HT2c agonist activity, maximum calcium response
Experimental: (ii) Human 5-HT2C Functional Assay in 1321N1 Cells
Functional activity was determined by testing the effect of the compounds on intracellular calcium levels in 1321N1 cells stably transfected with the human 5-HT2C receptor. Cells were seeded into 96-well plates at 50,000 cells/well and grown overnight in tissue culture medium (DMEM with Glutamax I (Invitrogen), containing 10% dFCS, 50 μg/mL Gentamicin, 400 μg/mL Geneticin) at 37° C. and 7% CO2. Growth medium was replaced by medium without dFCS for overnight incubation. Cells were loaded with a fluorescent calcium-sensitive dye in the presence of 1% probenicid according to the manufacturer's protocol (Fluo4 AM, Molecular Devices). Serial compound dilutions (final concentrations 10^−10 to 10^−5 M) were added to the cells either alone or in the presence of serotonin (10^−9 M) and the maximum calcium response was determined using a FLIPR instrument (Molecular Devices). Concentration-response curves were fitted using a four-parameter logistic equation (GraphPad Prism). The concentration at which the compound exerts half its maximal effect is named the ‘effective concentration 50’ or ‘EC50’ and is listed in Table 2.

[3] = target: T3, human serotonin 5-HT2c receptor (Homo sapiens, UniProt P28335); assay: Human 5-HT2C receptor radioligand binding assay (agonist site, [125I]DOI); conditions: 5-HT2c agonist site; transfected CHO cell membranes; 0.2 nM [125I](±)DOI
T3 construct: expressed in transfected cells; host or cells: CHO cells (membrane homogenates)
T3 sequence (P28335 33-458): T2 sequence (P28335 33-458)
Experimental: (i) Human 5-HT2C Receptor Radioligand Binding Assay
Affinity of compounds for the agonist site of the […], receptor in transfected CHO cells was determined in a radioligand binding assay essentially as described by Bryant, H. U., et al., Life Sciences (1996) 59(15), 1259-1268.

T1 sequence (P41595 whole entry): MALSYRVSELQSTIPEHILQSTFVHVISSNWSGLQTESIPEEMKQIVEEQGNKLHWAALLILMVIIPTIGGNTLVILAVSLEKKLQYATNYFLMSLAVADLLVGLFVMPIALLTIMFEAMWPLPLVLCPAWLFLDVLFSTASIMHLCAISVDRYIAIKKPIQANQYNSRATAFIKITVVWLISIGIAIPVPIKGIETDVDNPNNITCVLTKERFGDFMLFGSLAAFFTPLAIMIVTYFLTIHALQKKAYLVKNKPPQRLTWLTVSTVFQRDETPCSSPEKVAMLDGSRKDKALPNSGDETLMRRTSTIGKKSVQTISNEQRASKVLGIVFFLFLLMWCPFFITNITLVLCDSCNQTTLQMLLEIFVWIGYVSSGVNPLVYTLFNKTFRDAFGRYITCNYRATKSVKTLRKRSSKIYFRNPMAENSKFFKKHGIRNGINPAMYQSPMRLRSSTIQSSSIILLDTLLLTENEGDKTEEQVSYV

pEC50 (5HT2C receptors [2])	SMILES	pKi [3]	further results
7.95	O=C1NC[C@@H]2CN(Cc3ccccc3)C[C@H]2c2ccccc21 (racemic) [Example 1, Trans-2-benzyl-1,2,3,3a,4,5-hexahydrobenzo[c]pyrrolo[3,4-e]azepin-6(10bH)-one]		pEC50 (5HT2B receptors; 5-HT2B agonist activity, CHO-K1 cells, calcium flux, read-out: EC50): < 5.00; Emax (5HT2B receptors; 5-HT2B, maximum functional response as percentage relative to the effect of serotonin): inactive; pEC50 (5HT2C receptors [1]; 5-HT2C agonist activity, CHO-K1 cells, calcium flux, read-out: EC50): 7.70; Emax (5HT2C receptors [1]; CHO-K1, 5-HT2C, maximum functional response as percentage relative to the effect of serotonin, read-out: Emax): > 120%
	O=C1NC[C@@H]2CNC[C@H]2c2ccccc21 (relative stereo) [Example 2, Trans-1,2,3,3a,4,5-hexahydrobenzo[c]pyrrolo[3,4-e]azepin-6(10bH)-one]	7.66	
8.05	Cc1ccc(C)c(CN2C[C@H]3CNC(=O)c4ccccc4[C@@H]3C2)c1 (relative stereo) [Example 23, Trans-2-(2,5-dimethylbenzyl)-1,2,3,3a,4,5-hexahydrobenzo[c]pyrrolo[3,4-e]azepin-6(10bH)-one]		
7.34	Cc1ccc(CN2C[C@H]3CNC(=O)c4ccccc4[C@@H]3C2)c(C)c1 (relative stereo) [Example 24, Trans-2-(2,4-dimethylbenzyl)-1,2,3,3a,4,5-hexahydrobenzo[c]pyrrolo[3,4-e]azepin-6(10bH)-one]		
7.40	Cc1ccc(CN2C[C@H]3CNC(=O)c4ccccc4[C@@H]3C2)cc1C (relative stereo) [Example 25, Trans-2-(3,4-dimethylbenzyl)-1,2,3,3a,4,5-hexahydrobenzo[c]pyrrolo[3,4-e]azepin-6(10bH)-one]		
7.99	Cc1cccc(CN2C[C@H]3CNC(=O)c4ccccc4[C@@H]3C2)c1 (relative stereo) [Example 26, Trans-2-(3-methylbenzyl)-1,2,3,3a,4,5-hexahydrobenzo[c]pyrrolo[3,4-e]azepin-6(10bH)-one]		
6.58	Cc1cccc(CN2C[C@H]3CNC(=O)c4ccccc4[C@@H]3C2)c1C (relative stereo) [Example 27, Trans-2-(2,3-dimethylbenzyl)-1,2,3,3a,4,5-hexahydrobenzo[c]pyrrolo[3,4-e]azepin-6(10bH)-one]	6.68	
7.57	COc1ccccc1CN1C[C@H]2CNC(=O)c3ccccc3[C@@H]2C1 (relative stereo) [Example 29, Trans-2-(2-methoxybenzyl)-1,2,3,3a,4,5-hexahydrobenzo[c]pyrrolo[3,4-e]azepin-6(10bH)-one]	7.15	
8.68	O=C1NC[C@@H]2CN(Cc3cc(Cl)cc(Cl)c3)C[C@H]2c2ccccc21 (relative stereo) [Example 30, Trans-2-(3,5-dichlorobenzyl)-1,2,3,3a,4,5-hexahydrobenzo[c]pyrrolo[3,4-e]azepin-6(10bH)-one]	8.47	
8.39	O=C1NC[C@@H]2CN(Cc3cc(Cl)ccc3Cl)C[C@H]2c2ccccc21 (relative stereo) [Example 31, Trans-2-(2,5-dichlorobenzyl)-1,2,3,3a,4,5-hexahydrobenzo[c]pyrrolo[3,4-e]azepin-6(10bH)-one]		
7.71	O=C1NC[C@@H]2CN(Cc3cccc(Cl)c3)C[C@H]2c2ccccc21 (relative stereo) [Example 32, Trans-2-(3-chlorobenzyl)-1,2,3,3a,4,5-hexahydrobenzo[c]pyrrolo[3,4-e]azepin-6(10bH)-one]		
7.48	O=C1NC[C@@H]2CN(Cc3ccccc3Cl)C[C@H]2c2ccccc21 (relative stereo) [Example 33, Trans-2-(2-chlorobenzyl)-1,2,3,3a,4,5-hexahydrobenzo[c]pyrrolo[3,4-e]azepin-6(10bH)-one]		
7.92	O=C1NC[C@@H]2CN(Cc3cccc(F)c3)C[C@H]2c2ccccc21 (relative stereo) [Example 34, Trans-2-(3-fluorobenzyl)-1,2,3,3a,4,5-hexahydrobenzo[c]pyrrolo[3,4-e]azepin-6(10bH)-one]		
7.91	O=C1NC[C@@H]2CN(Cc3ccccc3F)C[C@H]2c2ccccc21 (relative stereo) [Example 35, Trans-2-(2-fluorobenzyl)-1,2,3,3a,4,5-hexahydrobenzo[c]pyrrolo[3,4-e]azepin-6(10bH)-one]		
7.11	N#Cc1cccc(CN2C[C@H]3CNC(=O)c4ccccc4[C@@H]3C2)c1 (relative stereo) [Example 36, 3-((Trans-6-oxo-1,3a,4,5,6,10b-hexahydrobenzo[c]pyrrolo[3,4-e]azepin-2(3H)-yl)methyl)benzonitrile]		
8.20	COc1cc(CN2C[C@H]3CNC(=O)c4ccccc4[C@@H]3C2)cc(OC)c1 (relative stereo) [Example 38, Trans-2-(3,5-dimethoxybenzyl)-1,2,3,3a,4,5-hexahydrobenzo[c]pyrrolo[3,4-e]azepin-6(10bH)-one]	8.07	
7.95	O=C1NC[C@@H]2CN(Cc3cc(Cl)cc(Cl)c3)C[C@@H]2c2ccccc21 (relative stereo) [Example 40, Cis-2-(3,5-dichlorobenzyl)-1,2,3,3a,4,5-hexahydrobenzo[c]pyrrolo[3,4-e]azepin-6(10bH)-one]		
8.31	O=C1NC[C@@H]2CN(Cc3cccc(Cl)c3)C[C@@H]2c2ccccc21 (relative stereo) [Example 41, Cis-2-(3-chlorobenzyl)-1,2,3,3a,4,5-hexahydrobenzo[c]pyrrolo[3,4-e]azepin-6(10bH)-one]		
7.74	O=C1NC[C@@H]2CN(Cc3cccc(F)c3)C[C@@H]2c2ccccc21 (relative stereo) [Example 42, Cis-2-(3-fluorobenzyl)-1,2,3,3a,4,5-hexahydrobenzo[c]pyrrolo[3,4-e]azepin-6(10bH)-one]		
7.09	O=C1NC[C@@H]2CN(Cc3cccc4ccccc34)C[C@@H]2c2ccccc21 (relative stereo) [Example 43, Cis-2-(naphthalen-1-ylmethyl)-1,2,3,3a,4,5-hexahydrobenzo[e]pyrrolo[3,4-e]azepin-6(10bH)-one]		
7.85	O=C1NC[C@@H]2CN(Cc3ccccc3)C[C@H]2c2c(Cl)cccc21 (relative stereo) [Example 48, Trans-2-benzyl-10-chloro-1,2,3,3a,4,5-hexahydrobenzo[e]pyrrolo[3,4-c]azepin-6(10bH)-one]	7.66	
7.08	O=C1NC[C@@H]2CN(Cc3ccccc3)C[C@H]2c2cc(Cl)ccc21 (relative stereo) [Example 51, Trans-2-benzyl-9-chloro-1,2,3,3a,4,5-hexahydrobenzo[e]pyrrolo[3,4-c]azepin-6(10bH)-one]	6.96	

SMILES	pEC50 (5HT2C receptors [2])	pKi [3]	further results
O=C1NC[C@@H]2CN(Cc3ccccc3)C[C@H]2c2ccc(Cl)cc21 (relative stereo) [Example 45, Trans-2-benzyl-8-chloro-1,2,3,3a,4,5-hexahydrobenzo[c]pyrrolo[3,4-e]azepin-6(10bH)-one]	8.23	8.16	
O=C1NC[C@@H]2CNC[C@H]2c2ccc(Cl)cc21 (relative stereo) [Example 46, Trans-8-chloro-1,2,3,3a,4,5-hexahydrobenzo[e]pyrrolo[3,4-c]azepin-6(10bH)-one]	8.94	7.96	
O=C1NC[C@@H]2CNC[C@H]2c2c(Cl)cccc21 (relative stereo) [Example 49]	7.32	6.77	
O=C1NC[C@@H]2CNC[C@H]2c2cc(Cl)ccc21 (relative stereo) [Example 52, Trans-9-chloro-1,2,3,3a,4,5-hexahydrobenzo[e]pyrrolo[3,4-c]azepin-6(10bH)-one]	6.80	6.07	
O=C1NC[C@@H]2CN(Cc3ccccc3)C[C@H]2c2cc(Cl)c(Cl)cc21 (relative stereo) [Example 56, Trans-2-benzyl-8,9-dichloro-1,2,3,3a,4,5-hexahydrobenzo[c]pyrrolo[3,4-e]azepin-6(10bH)-one]	7.82	7.15	
